One data set concerns acid secretion stimulated by pentagastrin of the perfused rat stomach. The data set is described as follows: Testing of the secretion-inhibiting action on the perfused rat stomach. To be noted: dose 3 μmol/kg i.d., anesthetized CD rats, perfused stomach in vivo. As to the method:
The abdomen of anesthetized rats (CD rats, female, 200-250 g; 1.5 g/kg i.m. urethane) was opened after tracheotomy by means of a median upper abdominal incision and a PVC catheter was fixed transorally in the esophagus and a further catheter via the pylorus such that the ends of the tubing just projected into the gastric lumen. The catheter leading from the pylorus led outwards through a side opening in the right abdominal wall.
After thorough rinsing (about 50-100 ml), warm physiological NaCl solution at 37° C. was continuously passed through the stomach (0.5 ml/min, pH 6.8-6.9; Braun-Unita I). The pH (pH meter 632, glass electrode EA 147; φ=5 mm, Metrohm), and, by titration with a freshly prepared 0.01 N NaOH solution to pH 7 (Dosimat 665 Metrohm), the secreted HCl were determined in the effluent in each case collected at an interval of 15 minutes.
The gastric secretion was stimulated by continuous perfusion of 1 μg/kg (=1.65 ml/h) of i.v. pentagastrin (left femoral vein) about 30 min after the end of the operation (i.e. alter determination of 2 preliminary fractions). The substances to be tested were administered intraduodenally in 2,5 ml/kg of liquid volume 60 min after the start of the pentagastrin continuous infusion.
The body temperature of the animals was kept at a constant 37.8-38° C. by infrared irradiation and heat pads (automatic, stepless control by means of rectal temperature sensors).
On to `COCCOCCO[C@@H]1c2ccn3c(C)c(C)nc3c2N[C@H](c2ccccc2)[C@H]1O` [Example 8, (7R,8R,9R)-8-Hydroxy-7-[2-(2-methoxyethoxy)ethoxy]-2,3-dimethyl-9-phenyl-7,8,9,10-tetrahydroimidazo[1,2-h][1,7]naphthyridine], for which the “Inhibition of acid secretion (%)” value amounted to 100%. In the case of `COCCOCCO[C@H]1c2ccn3c(C)c(C)nc3c2N[C@H](c2ccccc2)[C@H]1O` [Example 9, (7S,8R,9R)-8-Hydroxy-7-[2-(2-methoxyethoxy)ethoxy]2,3-dimethyl-9-phenyl-7,8,9,10-tetrahydroimidazo[1,2-h][1,7]naphthyridine], the “Inhibition of acid secretion (%)” value is 100%. Still for that read-out and setting: the figure for `Cc1cn2ccc3c(c2n1)N[C@H](c1ccccc1)[C@@H](O)[C@@H]3O` [Example 11, (7R,8R,9R)-7,8-Dihydroxy-2-methyl-9-phenyl-7,8,9,10-tetrahydroimidazo[1,2-h][1,7]naphthyridine] is 100%; for `COCCO[C@H]1c2ccn3cc(C)nc3c2N[C@H](c2ccccc2)[C@H]1O` [Example 12a, (7S,8R,9R)-8-hydroxy-2-methyl-7-(2-methoxyethoxy)-9-phenyl-7,8,9,10-tetrahydroimidazo[1,2-h][1,7]naphthyridine] it is 100%. As to `COCCO[C@@H]1c2ccn3cc(C)nc3c2N[C@H](c2ccccc2)[C@H]1O` [Example 12b, (7R,8R,9R)-8-hydroxy-2-methyl-7-(2-methoxyethoxy)-9-phenyl-7,8,9,10-tetrahydroimidazo[1,2-h][1,7]-naphthyridine], the “Inhibition of acid secretion (%)” value is reported as 100%. Same read-out and setting: the figure for `COCCO[C@@H]1c2ccn3c(Br)c(C)nc3c2N[C@H](c2ccccc2)[C@H]1O` [Example 13, (7R,8R,9R)-3-Bromo-8-hydroxy-7-(2-methoxyethoxy)-2-methyl-9-phenyl-7,8,9,10-tetrahydroimidazo[1,2-h][1,7]naphthyridine] is 100%. Still for that read-out and setting: the figure for `COCCO[C@@H]1c2ccn3c(Cl)c(C)nc3c2N[C@H](c2ccccc2)[C@H]1O` [Example 14, (7R,8R,9R)-3-Chloro-8-hydroxy-7-(2-methoxyethoxy)-2-methyl-9-phenyl-7,8,9,10-tetrahydroimidazo[1,2-h][1,7]naphthyridine] is 100%.

In the case of `COCCO[C@@H]1c2ccn3c(Cl)c(C)nc3c2O[C@H](c2ccccc2)[C@@H]1O` [Example 16, (7R,8R,9R)-3-Chloro-8-hydroxy-7-(2-methoxyethoxy)-2-methyl-9-phenyl-7H-8,9-dihydro-pyrano[2,3-c]imidazo[1,2-a]pyridine], the “Inhibition of acid secretion (%)” value was 100%. The same measure, in the same setting: the figure for `COCCO[C@@H]1c2ccn3cc(C)nc3c2O[C@H](c2ccccc2)[C@@H]1O` [Example 17, (7R,8R,9R)-8-Hydroxy-7-(2-methoxyethoxy)-2-methyl-9-phenyl-7H-8,9-dihydro-pyrano[2,3-c]imidazo[1,2-a]pyridine] is 100%. The same measure, in the same setting: with `Cc1cn2ccc3c(c2n1)O[C@H](c1ccccc1)[C@H](O)[C@@H]3O` [Example 18, (7R,8R,9R)-7,8-Dihydroxy-2-methyl-9-phenyl-7H-8,9-dihydropyrano[2,3-c]imidazo[1,2-a]pyridine] the figure was 100%; with `CO[C@@H]1c2ccn3cc(C)nc3c2N[C@H](c2ccccc2)[C@H]1O` [Example 20, (7R,8R,9R)-8-Hydroxy-7-methoxy-2-methyl-9-phenyl-7,8,9,10-tetrahydroimidazo[1,2-h][1,7]naphthyridine], 100%. Same read-out and setting: with `CO[C@H]1c2ccn3cc(C)nc3c2N[C@H](c2ccccc2)[C@H]1O` [Example 21, (7S,8R,9R)-8-Hydroxy-7-methoxy-2-methyl-9-phenyl-7,8,9,10-tetrahydroimidazo[1,2-h][1,7]naphthyridine] the figure was 100%. `COCCO[C@@H]1c2ccn3c(CO)c(C)nc3c2N[C@H](c2ccccc2)[C@H]1O` [Example 22, (7R,8R,9R)-3-Hydroxymethyl-8-hydroxy-7-(2-methoxyethoxy)-2-methyl-9-phenyl-7,8,9,10-tetrahydroimidazo[1,2-h][1,7]naphthyridine]: the “Inhibition of acid secretion (%)” value was 100%.

System in a further data set: not given
Experiment: not given
Details: not given
As usually defined, the melting point is the temperature of the solid-liquid transition. In the case of `Cc1nc2c3c(ccn2c1C)C(=O)C(O)C(c1ccsc1)N3` (centres unmarked) [Example 1, 8-Hydroxy-2,3-dimethyl-9-(3-thienyl)-7,8,9,10-tetrahydroimidazo[1,2-h][1,7]naphthyridin-7-one], the melting point was 222 to 225 °C. Molecule `Cc1nc2c3c(ccn2c1C)C(O)C(O)C(c1ccsc1)N3` (centres unmarked) [Example 2, 7,8-Dihydroxy-2,3-dimethyl-9-(3-thienyl)-7,8,9,10-tetrahydroimidazo[1,2-h][1,7]naphthyridine] registered a melting point of 134 to 138 °C. Still for that read-out and setting: the figure for `Cc1nc2c3c(ccn2c1C)C(=O)CC(c1ccsc1)N3` (centres unmarked) [Example 3, 2,3-Dimethyl-9-(3-thienyl)-7,8,9,10-tetrahydroimidazo[1,2-h][1,7]naphthyridin-7-one] is 176 to 177 °C; for `Cc1nc2c3c(ccn2c1C)C(O)CC(c1ccsc1)N3` (centres unmarked) [Example 4, 7-Hydroxy-2,3-dimethyl-9-(3-thienyl)-7,8,9,10-tetrahydroimidazo[1,2-h][1,7]naphthyridine] it is 192 to 194 °C.

In turn, `Cc1nc2c3c(ccn2c1C)C(O)CC(c1ccoc1)N3` (centres unmarked) [Example 7, 9-(3-Furyl)-7-hydroxy-2,3-dimethyl-7,8,9,10-tetrahydroimidazo[1,2-h][1,7]naphthyridine] gave a melting point of 221 to 222 °C.

On to `Cc1cn2ccc3c(c2n1)N[C@H](c1ccccc1)[C@@H](O)[C@@H]3O` [Example 11, (7R,8R,9R)-7,8-Dihydroxy-2-methyl-9-phenyl-7,8,9,10-tetrahydroimidazo[1,2-h][1,7]naphthyridine], for which the melting point is 119 °C (dec.). Still for that read-out and setting: with `COCCO[C@@H]1c2ccn3c(Br)c(C)nc3c2N[C@H](c2ccccc2)[C@H]1O` [Example 13, (7R,8R,9R)-3-Bromo-8-hydroxy-7-(2-methoxyethoxy)-2-methyl-9-phenyl-7,8,9,10-tetrahydroimidazo[1,2-h][1,7]naphthyridine] the figure was 153 to 154 °C; with `COCCO[C@@H]1c2ccn3c(Cl)c(C)nc3c2N[C@H](c2ccccc2)[C@H]1O` [Example 14, (7R,8R,9R)-3-Chloro-8-hydroxy-7-(2-methoxyethoxy)-2-methyl-9-phenyl-7,8,9,10-tetrahydroimidazo[1,2-h][1,7]naphthyridine], 123 to 126 °C.

The molecule `COCCO[C@@H]1c2ccn3c(CO)c(C)nc3c2N[C@H](c2ccccc2)[C@H]1O` [Example 22, (7R,8R,9R)-3-Hydroxymethyl-8-hydroxy-7-(2-methoxyethoxy)-2-methyl-9-phenyl-7,8,9,10-tetrahydroimidazo[1,2-h][1,7]naphthyridine] yielded a melting point of 180 to 183 °C.

As for `COCCO[C@@H]1c2ccn3c(-c4ccccc4)c(C)nc3c2N[C@H](c2ccccc2)[C@H]1O` [Example 25, (7R,8R,9R)-3,9-Diphenyl-8-hydroxy-7-(2-methoxyethoxy)-2-methyl-7,8,9,10-tetrahydroimidazo[1,2-h][1,7]naphthyridine], the melting point was 190 to 192 °C. On the same count and under the same terms, with `COCc1nc2c3c(ccn2c1C)C(=O)[C@H](O)[C@@H](c1ccccc1)N3` [Example 26, (8R,9R)-8-Hydroxy-2-methoxymethyl-3-methyl-9-phenyl-7,8,9,10-tetrahydroimidazo[1,2-h][1,7]naphthyridin-7-one] the figure was 168 to 173 °C; with `COCc1nc2c3c(ccn2c1C)[C@@H](O)[C@H](O)[C@@H](c1ccccc1)N3` [Example 27, (7R,8R,9R)-7,8-Dihydroxy-2-methoxymethyl-3-methyl-9-phenyl-7,8,9,10-tetrahydroimidazo[1,2-h][1,7]naphthyridine], 102 to 104 °C. Same read-out and setting: the figure for `COCCO[C@H]1c2ccn3c(C)c(COC)nc3c2N[C@H](c2ccccc2)[C@H]1O` [Example 28a, (7S,8R,9R)-8-hydroxy-7-(2-methoxyethoxy)-2-methoxymethyl-3-methyl-9-phenyl-7,8,9,10-tetrahydroimidazo[1,2-h][1,7]naphthyridine] is 63 to 65 °C.

Values taken from patent US6869949B2, “Polysubstituted imidazopyridines as gastric secretion inhibitors” (Altana Pharma AG, priority 2000, dated 2005).
